In PubChem BioAssay AID332 (DTP/NCI, 2004):
Values joined by “and” are separate entries in the source; they are usually repeats but may differ in a detail not shown here. Equal entries are not always repeated. Inconclusive results are not listed.

Tested on: mice, ADJ-PC-20 plasma cell tumor sc, T/C %
Assay: NCI In Vivo Anticancer Drug Screen. Data for tumor model ADJ-PC-20 Plasma Cell (subcutaneous) in unknown mice
Conditions: endpoint: mean tumor weight, higher = larger tumour
Description: The antitumor activity of compounds was measured in mice bearing transplantable tumors. Survival or tumor size were measured and the results are expressed as the measurement made in the treated group (T) divided by the measurement made in the vehicle treated control group (C). The tumor model used in this assay is ADJ-PC-20 Plasma Cell (subcutaneous) in unknown mice

[1] = dose: 6.25 mg/kg/injection, schedule: Q01DX010 (ip), vehicle: carboxymethylcellulose (CMC)
[2] = dose: 12.5 mg/kg/injection, schedule: Q01DX010 (ip), vehicle: carboxymethylcellulose (CMC)
[3] = dose: 25.0 mg/kg/injection, schedule: Q01DX010 (ip), vehicle: carboxymethylcellulose (CMC)
[4] = dose: 50.0 mg/kg/injection, schedule: Q01DX010 (ip), vehicle: carboxymethylcellulose (CMC)
[5] = dose: 1.0 mg/kg/injection, schedule: Q01DX010 (ip), vehicle: carboxymethylcellulose (CMC)
[6] = dose: 2.0 mg/kg/injection, schedule: Q01DX010 (ip), vehicle: carboxymethylcellulose (CMC)
[7] = dose: 4.0 mg/kg/injection, schedule: Q01DX010 (ip), vehicle: carboxymethylcellulose (CMC)
[8] = dose: 250.0 mg/kg/injection, schedule: Q01DX010 (ip), vehicle: saline
[9] = dose: 500.0 mg/kg/injection, schedule: Q01DX010 (ip), vehicle: saline

In the case of `O=CN(O)CC(=O)O`, the T/C (dose: 62.5 mg/kg/injection, schedule: Q01DX011 (ip), vehicle: carboxymethylcellulose (CMC)) is reported as 124 % of control, the T/C (dose: 125.0 mg/kg/injection, schedule: Q01DX011 (ip), vehicle: carboxymethylcellulose (CMC)) is reported as 76 % of control and the T/C (dose: 250.0 mg/kg/injection, schedule: Q01DX011 (ip), vehicle: carboxymethylcellulose (CMC)) is reported as 74 % of control. The T/C (dose: 500.0 mg/kg/injection, schedule: Q01DX010 (ip), vehicle: carboxymethylcellulose (CMC)) was 89 % of control, the T/C (dose: 500.0 mg/kg/injection, schedule: Q01DX011 (ip), vehicle: carboxymethylcellulose (CMC)) was 56 % of control and the T/C (dose: 1000.0 mg/kg/injection, schedule: Q01DX010 (ip), vehicle: carboxymethylcellulose (CMC)) was 63 % of control.
For `N#Cc1cn(C2OC(CO)C(O)C2O)c2ncnc(N)c12` (centres undefined), the T/C (dose: 0.12 mg/kg/injection, schedule: Q01DX010 (ip), vehicle: carboxymethylcellulose (CMC)) was 47 % of control.
In the case of `Nc1ncnc2c1ccn2C1OC(CO)C(O)C1O` (centres undefined), the T/C (dose: 0.63 mg/kg/injection, schedule: Q01DX010 (ip), vehicle: carboxymethylcellulose (CMC)) is reported as 94 % of control.
In the case of `Nc1ncnc2[nH]ncc12`, the T/C [1] is reported as 108 % of control, the T/C [2] is reported as 87 % of control and the T/C [3] is reported as 22 % of control.
With `Cc1n[nH]c(=O)[nH]c1=O` the T/C (dose: 100.0 mg/kg/injection, schedule: Q01DX010 (ip), vehicle: other) was 80 % of control and the T/C (dose: 200.0 mg/kg/injection, schedule: Q01DX010 (ip), vehicle: other) was 85 % of control.
With `O=NN(CCCl)C(=O)NCCCl` the T/C (dose: 0.8 mg/kg/injection, schedule: Q01DX010 (ip), vehicle: saline) was 102 % of control, the T/C (dose: 1.6 mg/kg/injection, schedule: Q01DX010 (ip), vehicle: saline) was 87 % of control and the T/C (dose: 6.2 mg/kg/injection, schedule: Q01DX010 (ip), vehicle: saline) was 48 % of control.
`COC1=C(N)C(=O)c2nc(-c3nc(C(=O)O)c(C)c(-c4ccc(OC)c(OC)c4O)c3N)ccc2C1=O` was tested, and the T/C (dose: 0.02 mg/kg/injection, schedule: Q01DX010 (ip), vehicle: other) was 97 % of control, the T/C (dose: 0.04 mg/kg/injection, schedule: Q01DX010 (ip), vehicle: other) was 66 % of control and the T/C (dose: 0.08 mg/kg/injection, schedule: Q01DX010 (ip), vehicle: other) was 71 % of control. The T/C (dose: 0.17 mg/kg/injection, schedule: Q01DX010 (ip), vehicle: other) was 44 % of control and the T/C (dose: 0.34 mg/kg/injection, schedule: Q01DX010 (ip), vehicle: other) was 13 % of control.
`O=C1CCC(N2C(=O)c3ccccc3C2=O)C(=O)N1` (centres undefined) was tested, and the T/C (dose: 18.75 mg/kg/injection, schedule: Q01DX010 (ip), vehicle: carboxymethylcellulose (CMC)) was 55 % of control, the T/C (dose: 37.5 mg/kg/injection, schedule: Q01DX010 (ip), vehicle: carboxymethylcellulose (CMC)) was 104 % of control and the T/C (dose: 75.0 mg/kg/injection, schedule: Q01DX010 (ip), vehicle: carboxymethylcellulose (CMC)) was 107 % of control. The T/C (dose: 150.0 mg/kg/injection, schedule: Q01DX010 (ip), vehicle: carboxymethylcellulose (CMC)) was 82 % of control and 99 % of control, the T/C (dose: 300.0 mg/kg/injection, schedule: Q01DX010 (ip), vehicle: carboxymethylcellulose (CMC)) was 107 % of control and 113 % of control and the T/C (dose: 600.0 mg/kg/injection, schedule: Q01DX010 (ip), vehicle: carboxymethylcellulose (CMC)) was 82 % of control.
For `CC(=O)O[C@]1(C(C)=O)CC[C@H]2[C@@H]3C[C@H](C)C4=CC(=O)C=C[C@]4(C)[C@@]3(F)[C@@H](O)C[C@@]21C`, the T/C (dose: 5.0 mg/kg/injection, schedule: Q01DX010 (sc), vehicle: steriod suspending solution) was 82 % of control, the T/C (dose: 10.0 mg/kg/injection, schedule: Q01DX010 (sc), vehicle: steriod suspending solution) was 55 % of control and the T/C (dose: 20.0 mg/kg/injection, schedule: Q01DX010 (sc), vehicle: steriod suspending solution) was 74 % of control. For the same compound, the T/C (dose: 40.0 mg/kg/injection, schedule: Q01DX010 (sc), vehicle: steriod suspending solution) was 73 % of control and the T/C (dose: 80.0 mg/kg/injection, schedule: Q01DX010 (sc), vehicle: steriod suspending solution) was 33 % of control.
For `CS(=O)(=O)OCCCl`, the T/C [2] was 120 % of control, the T/C [3] was 114 % of control and the T/C [4] was 76 % of control. The T/C (dose: 100.0 mg/kg/injection, schedule: Q01DX010 (ip), vehicle: carboxymethylcellulose (CMC)) was 124 % of control.
With `N=C(N)SCc1c2ccccc2c(CSC(=N)N)c2ccccc12` the T/C (dose: 10.0 mg/kg/injection, schedule: Q01DX010 (ip), vehicle: carboxymethylcellulose (CMC)) was 119 % of control and the T/C (dose: 20.0 mg/kg/injection, schedule: Q01DX010 (ip), vehicle: carboxymethylcellulose (CMC)) was 55 % of control.
With `CCC(=O)O[C@H]1CC[C@H]2[C@@H]3CCC4=CC(=O)CC[C@]4(C)[C@H]3CC[C@]12C` the T/C (dose: 125.0 mg/kg/injection, schedule: Q01DX010 (sc), vehicle: steriod suspending solution) was 79 % of control, the T/C (dose: 250.0 mg/kg/injection, schedule: Q01DX010 (sc), vehicle: steriod suspending solution) was 154 % of control and the T/C (dose: 500.0 mg/kg/injection, schedule: Q01DX010 (sc), vehicle: steriod suspending solution) was 76 % of control. For the same compound, the T/C (dose: 1000.0 mg/kg/injection, schedule: Q01DX010 (sc), vehicle: steriod suspending solution) was 108 % of control and the T/C (dose: 2000.0 mg/kg/injection, schedule: Q01DX010 (sc), vehicle: steriod suspending solution) was 80 % of control.
For `Cn1cnc([N+](=O)[O-])c1Sc1nc(N)nc2nc[nH]c12`, the T/C (dose: 0.5 mg/kg/injection, schedule: Q01DX010 (ip), vehicle: carboxymethylcellulose (CMC)) was 71 % of control, the T/C [5] was 33 % of control and the T/C [6] was 30 % of control and 31 % of control. The T/C [7] was 2 % of control.
`Cc1cc(N(CCCl)CCCl)ccc1N=Nc1ccccc1C(=O)O` was tested, and the T/C (dose: 0.95 mg/kg/injection, schedule: Q01DX010 (ip), vehicle: carboxymethylcellulose (CMC)) was 60 % of control, the T/C (dose: 1.9 mg/kg/injection, schedule: Q01DX010 (ip), vehicle: carboxymethylcellulose (CMC)) was 56 % of control and the T/C (dose: 3.8 mg/kg/injection, schedule: Q01DX010 (ip), vehicle: carboxymethylcellulose (CMC)) was 38 % of control. The T/C (dose: 7.5 mg/kg/injection, schedule: Q01DX010 (ip), vehicle: carboxymethylcellulose (CMC)) was 25 % of control.
For `O=C(Nc1ccc(NC2=NCCN2)cc1)c1ccc(C(=O)Nc2ccc(NC3=NCCN3)cc2)cc1`, the T/C (dose: 4.0 mg/kg/injection, schedule: Q01DX010 (ip), vehicle: saline) was 98 % of control and the T/C (dose: 8.0 mg/kg/injection, schedule: Q01DX010 (ip), vehicle: saline) was 69 % of control.
In the case of `CN(Cc1cnc2nc(N)nc(N)c2n1)c1c(Cl)cc(C(=O)NC(CCC(=O)O)C(=O)O)cc1Cl` (centres undefined), the T/C [1] is reported as 93 % of control, the T/C [2] is reported as 112 % of control and the T/C [3] is reported as 79 % of control and 97 % of control. The T/C [4] was 71 % of control.
`C[C@]12C=CC(=O)C=C1CC[C@@H]1[C@@H]2C(=O)C[C@@]2(C)[C@H]1CC[C@]2(O)C(=O)CO` was tested, and the T/C (dose: 6.3 mg/kg/injection, schedule: Q01DX010 (sc), vehicle: steriod suspending solution) was 107 % of control, the T/C (dose: 12.5 mg/kg/injection, schedule: Q01DX010 (sc), vehicle: steriod suspending solution) was 51 % of control and the T/C (dose: 100.0 mg/kg/injection, schedule: Q01DX010 (sc), vehicle: steriod suspending solution) was 14 % of control.
For `S=c1nc[nH]c2nc[nH]c12`, the T/C (dose: 3.1 mg/kg/injection, schedule: Q01DX010 (ip), vehicle: other) was 28 % of control, the T/C (dose: 6.2 mg/kg/injection, schedule: Q01DX010 (ip), vehicle: other) was 16 % of control and the T/C (dose: 6.25 mg/kg/injection, schedule: Q01DX010 (ip), vehicle: other) was 19 % of control. For the same compound, the T/C (dose: 6.25 mg/kg/injection, schedule: Q01DX011 (ip), vehicle: other) was 7 % of control, the T/C (dose: 12.5 mg/kg/injection, schedule: Q01DX010 (ip), vehicle: other) was 18 % of control and the T/C (dose: 12.5 mg/kg/injection, schedule: Q01DX011 (ip), vehicle: other) was 4 % of control. The T/C (dose: 25.0 mg/kg/injection, schedule: Q01DX010 (ip), vehicle: other) was 9 % of control and 10 % of control, the T/C (dose: 25.0 mg/kg/injection, schedule: Q01DX011 (ip), vehicle: other) was 5 % of control and the T/C (dose: 50.0 mg/kg/injection, schedule: Q01DX011 (ip), vehicle: other) was 7 % of control.
`CCn1cnc2c(=S)nc[nH]c21` was tested, and the T/C [5] was 71 % of control, the T/C [6] was 48 % of control and the T/C [7] was 11 % of control. For the same compound, the T/C (dose: 8.0 mg/kg/injection, schedule: Q01DX010 (ip), vehicle: carboxymethylcellulose (CMC)) was 2 % of control.
`CC/C(=C(/CC)c1ccc(O)cc1)c1ccc(O)cc1` was tested, and the T/C (dose: 62.5 mg/kg/injection, schedule: Q01DX010 (sc), vehicle: steriod suspending solution) was 105 % of control.
For `CN(C)CC(=O)c1ccc(O)c(O)c1`, the T/C (dose: 62.5 mg/kg/injection, schedule: Q01DX010 (ip), vehicle: saline) was 99 % of control, the T/C [8] was 77 % of control and the T/C [9] was 72 % of control and 86 % of control.
With `C[C@H](N)C(=O)N[C@@H]1[C@H]2C(=C(O)C[C@@H](O)[C@@H]2O)C(=O)O[C@@H]1C` the T/C [8] was 48 % of control and the T/C [9] was 58 % of control.
